Source: patent publication US20150132328A1 (priority 2011, published 2015)
Like-named read-outs stand apart in the source and are kept apart here.

Tests used:
[1] = system: newborn rat thymocytes; conditions: Con A 50 pg/mL
Description: It was used an octapeptide with similar weight for the elaboration of the complex, to which was just the proline (4) and Glycine (5) original amino acids were interchanged by proline (4) and Glycine (5) resulting as […].

[2] = system: IL-2; conditions: umbilical cord blood; PHA; cited from earlier work
[3] = system: Jurkat cells; conditions: peptide 10^−10M, PHA 1 μg/mL
[4] = system: THP-1 cells; conditions: for Proliferation (% with respect to the control): LPS 0.5 μg/mL
Description: We proceeded to perform some related to the proliferative stimulation of the peptide in presence of other divalent cations such as magnesium, copper, and manganese.

[5] = system: human lymphocytes; conditions: for Proliferation (% with respect to the control): PHA 1 μg/mL

Substance: LEDGPKFL [reference compound]
- Proliferation (% with respect to the control) ([1]; 10^−6 (918 ng/mL)): 123.1 ± 6.1 %
- Proliferation (% with respect to the control) ([1]; 10^−7 (91.8 ng/mL)): 125.6 ± 3.9 %
- Proliferation (% with respect to the control) ([1]; 10^−7.5 (9.58 ng/mL)): 119.2 ± 6.1 %
- Proliferation (% with respect to the control) ([1]; 10^−8 (9.18 ng/mL)): 117.3 ± 3.2 %
- Proliferation (% with respect to the control) ([1]; 10^−9 (0.91 ng/mL)): 110.6 ± 7.9%
- Proliferation (% with respect to the control) ([1]; 10^−10 (0.09 ng/mL)): 104.3 ± 4.8%
- Proliferation (% with respect to the control) ([1]; 10^−11 (0.009 ng/mL)): 103.7 ± 5.1%
- Proliferation (% with respect to the control) ([1]; 10^−12 (0.0009 ng/mL)): 104.4 ± 2.5%
- Concentrations increasing IL-2 production [2]: 300 to 600 ng/mL
- Proliferation (% with respect to the control) ([3]; [ZINC] (M) −8): 195 ± 10 %
- Proliferation (% with respect to the control) ([3]; [ZINC] (M) −9): 192 ± 12 %
- Proliferation (% with respect to the control) ([3]; [ZINC] (M) −10): 190 ± 10 %
- Proliferation (% with respect to the control) ([3]; [ZINC] (M) −11): 135 ± 10 %
- Proliferation (% with respect to the control) ([3]; [ZINC] (M) −12): 102 ± 5.2%

Substance: Zinc [reference compound]
- Proliferation (% with respect to the control) ([4]; Concentration (M) −6): 105 ± 8.8%
- Proliferation (% with respect to the control) ([4]; Concentration (M) −7): 102 ± 9.7%
- Proliferation (% with respect to the control) ([4]; Concentration (M) −7.5): 104 ± 8.8%
- Proliferation (% with respect to the control) ([4]; Concentration (M) −8): 102 ± 12.1%
- Proliferation (% with respect to the control) ([4]; Concentration (M) −9): 103 ± 9.9%
- Proliferation (% with respect to the control) ([4]; Concentration (M) −10): 100 ± 7.0%
- Proliferation (% with respect to the control) ([4]; Concentration (M) −11): 101 ± 3.9%
- Proliferation (% with respect to the control) ([4]; Concentration (M) −12): 98 ± 4.5%
- Effect on proliferation ([4]; zinc ion by itself): did not stimulate the proliferation
- Proliferation (% with respect to the control) ([5]; Concentration (M) −6): 96 ± 2.8%
- Proliferation (% with respect to the control) ([5]; Concentration (M) −7): 99 ± 2.7%
- Proliferation (% with respect to the control) ([5]; Concentration (M) −7.5): 95 ± 3.8%
- Proliferation (% with respect to the control) ([5]; Concentration (M) −8): 101 ± 4.1%
- Proliferation (% with respect to the control) ([5]; Concentration (M) −9): 103 ± 3.9%
- Proliferation (% with respect to the control) ([5]; Concentration (M) −10): 100 ± 3.0%
- Proliferation (% with respect to the control) ([5]; Concentration (M) −11): 99 ± 3.9%
- Proliferation (% with respect to the control) ([5]; Concentration (M) −12): 96 ± 4.5%
- Effect on proliferation ([5]; zinc ion by itself, PHA stimulated): did not modify the proliferation
